Assay results from article PMC11714206, “Massively Parallel Screening of Toll/Interleukin‐1 Receptor (TIR)‐Derived Peptides Reveals Multiple Toll‐Like Receptors (TLRs)‐Targeting Immunomodulatory Peptides” (Advanced Science, 2024).

Target: T1, MyD88^TIR (Homo sapiens, UniProt Q99836)
T1 construct: MyD88 (residues 148–296); 6xHis; made in house; host or cells: E. coli BL21 (DE3)
Test: T‐Surf phage library (P8 and P3) selection against MyD88^TIR, four rounds, NGS read counts
Assay type: binding
Settings: for P8_MyD88 Rank (after) / P8_MyD88 Rank (before): P8 library; for Population: 4th round of selection against MyD88 TIR, share of NGS reads; for P3_MyD88 Rank (after) / P3_MyD88 Rank (before): P3 library
Summary of the method: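 Read counts come from NGS of phage pools enriched over four selection rounds on the plate‐coated TIR domain (5 µg mL^−1). Each round: 1 h phage binding at room temperature after 0.2% BSA blocking, Tween washes, acid elution, amplification in E. coli TG1 with M13KO7 helper.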

[1] = selection against MyD88 TIR, rank by count after grouping
[2] = selection against MyD88 TIR, rank by count before grouping
[3] = P8_MyD88: rank by count after grouping
[4] = P8_MyD88: rank by count before grouping
[5] = P8_MyD88 pool: P8 T-Surf phage library
[6] = selection against MyD88, rank by count after grouping
[7] = selection against MyD88, rank by count before grouping
[8] = P8_MyD88: rank by NGS read count after grouping
[9] = P8_MyD88: rank by NGS read count before grouping
[10] = selection against MyD88, rank after grouping
[11] = selection against MyD88, rank before grouping
[12] = 4R selection against MyD88, rank after grouping
[13] = 4R selection against MyD88, rank before grouping
[14] = P3_MyD88: rank by count after grouping
[15] = P3_MyD88: rank by count before grouping

T1 sequence (Q99836 148-296): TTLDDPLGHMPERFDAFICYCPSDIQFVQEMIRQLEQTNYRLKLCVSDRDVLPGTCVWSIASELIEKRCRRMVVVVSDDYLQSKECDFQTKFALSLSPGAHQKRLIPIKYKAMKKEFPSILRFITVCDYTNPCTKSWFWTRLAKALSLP

WALNELVEIYQAYKEL
P8_MyD88 Rank (after) [1]: 273 | P8_MyD88 Rank (before) [2]: 521

WALQELLEILKANREL
Rank (after) [3]: 149 | Rank (before) [4]: 168 | Population [5]: 0.00848%

WALQELVKILQAKIFL
Rank (after) [3]: 109 | Rank (before) [4]: 115 | Population [5]: 0.02%

WALRELEAILQSFQLS
Rank (after) [3]: 142 | Rank (before) [4]: 154 | Population [5]: 0.01%

WALSELVEILRARENM
P8_MyD88 Rank (after) [1]: 195 | P8_MyD88 Rank (before) [2]: 254

WALVELLHIRHARELF
P8_MyD88 Rank (after) [6]: 709 | P8_MyD88 Rank (before) [7]: 1405

WALVKLLKILYANDTM
Rank (after) [8]: 949 | Rank (before) [9]: 1406

WALVVLLQILHARELF
P8_MyD88 Rank (after) [10]: 490 | P8_MyD88 Rank (before) [11]: 1403

WALYELLHILHARELF
P8_MyD88 Rank (after) [10]: 532 | P8_MyD88 Rank (before) [11]: 1401

WAQDALLKILYAKETM
P8_MyD88 Rank (after) [12]: 614 | P8_MyD88 Rank (before) [13]: 1562

WAQEQDGFWVRLIEAL
Rank (after) [3]: 449 | Rank (before) [4]: 878

WDCASNMEQFWDLPYY
Rank (after) [8]: 920 | Rank (before) [9]: 1639

WDFAGNWEQFWDRLSY
P8_MyD88 Rank (after) [6]: 772 | P8_MyD88 Rank (before) [7]: 1576

WDFASDMEQVWDRLYY
Rank (after) [3]: 444 | Rank (before) [4]: 1582

WDFASKMEQFLDRLYY
Rank (after) [8]: 893 | Rank (before) [9]: 1632

WDFASNMAQFWDRRYY
P8_MyD88 Rank (after) [1]: 283 | P8_MyD88 Rank (before) [2]: 1593

WDFASNMAQSWDRLYY
P8_MyD88 Rank (after) [1]: 246 | P8_MyD88 Rank (before) [2]: 1595

WDFASNMAQVWERLYY
Rank (after) [8]: 890 | Rank (before) [9]: 1596

WDFASNMEQFWDRLIRMIE
P8_MyD88 Rank (after) [10]: 529 | P8_MyD88 Rank (before) [11]: 1611

WDFASNMEQFWDRLLYA
P8_MyD88 Rank (after) [6]: 711 | P8_MyD88 Rank (before) [7]: 1610

WDFASNMEQFWIVCI
P8_MyD88 Rank (after) [6]: 706 | P8_MyD88 Rank (before) [7]: 1619

WDFASNMEQLLDRLYY
Rank (after) [3]: 406 | Rank (before) [4]: 1626

WDFASNMEQLWERLYY
Rank (after) [8]: 1014 | Rank (before) [9]: 1625

WDFASNMNSFGIVCI
Rank (after) [8]: 974 | Rank (before) [9]: 1628

WDFASSSWALDELLRILY
P8_MyD88 Rank (after) [10]: 550 | P8_MyD88 Rank (before) [11]: 1585

WDFASSTWWLRELLQIA
P8_MyD88 Rank (after) [1]: 272 | P8_MyD88 Rank (before) [2]: 524

WDFASTMEQLWARLYY
P8_MyD88 Rank (after) [10]: 498 | P8_MyD88 Rank (before) [11]: 1587

WDFCEQYGTVLGSSVL
P8_MyD88 Rank (after) [10]: 555 | P8_MyD88 Rank (before) [11]: 1569

WDFGTAGKNPGSAWHH
Rank (after) [8]: 910 | Rank (before) [9]: 1573

WDFSGNIEQFWDRLYY
P8_MyD88 Rank (after) [6]: 758 | P8_MyD88 Rank (before) [7]: 1570

WDFSGNMKQALDRLCY
P8_MyD88 Rank (after) [12]: 613 | P8_MyD88 Rank (before) [13]: 1571

WDYASNMEQFWDPLYY
P8_MyD88 Rank (after) [12]: 675 | P8_MyD88 Rank (before) [13]: 1642

WDYASNVELFWGRMNY
P8_MyD88 Rank (after) [12]: 586 | P8_MyD88 Rank (before) [13]: 1640

WEDVRINFLSHFLKEL
P8_MyD88 Rank (after) [1]: 253 | P8_MyD88 Rank (before) [2]: 434

WFLEPLEKILQAHGTT
P8_MyD88 Rank (after) [12]: 600 | P8_MyD88 Rank (before) [13]: 1360

WFLFTVRSAIYAMSPA
Rank (after) [8]: 921 | Rank (before) [9]: 1358

WFLTAFRMAMDQVADT
Rank (after) [3]: 95 | Rank (before) [4]: 100 | Population [5]: 0.025%

WFWDKLKYALHRNRI
Rank (after) [14]: 406 | Rank (before) [15]: 1414

WFWDKQKYTLPHRYEP
P3_MyD88 Rank (after) [12]: 583 | P3_MyD88 Rank (before) [13]: 1418

WFWQKLNYAMPHLARL
P8_MyD88 Rank (after) [1]: 200 | P8_MyD88 Rank (before) [2]: 271

WFWQSLRNTIIMDNQA
P8_MyD88 Rank (after) [12]: 605 | P8_MyD88 Rank (before) [13]: 1355

WGQAVTEDLWGWLFNP
Rank (after) [3]: 176 | Rank (before) [4]: 201

WILRAIWNSFGIVCI
Rank (after) [3]: 475 | Rank (before) [4]: 1653

WIWEKLKYALPHRYEP
P3_MyD88 Rank (after) [12]: 640 | P3_MyD88 Rank (before) [13]: 1424

WKEALTYVSLLVGFPF
P8_MyD88 Rank (after) [1]: 224 | P8_MyD88 Rank (before) [2]: 380

WLESVLEDKFGYSLAL
Rank (after) [3]: 110 | Rank (before) [4]: 116 | Population [5]: 0.02%

WLLDQLDKILEAHGTT
P8_MyD88 Rank (after) [6]: 693 | P8_MyD88 Rank (before) [7]: 1380

WMRALAYIVNIVGESS
P8_MyD88 Rank (after) [1]: 268 | P8_MyD88 Rank (before) [2]: 529

WPEDYQDIGWFLDNLS
P8_MyD88 Rank (after) [1]: 202 | P8_MyD88 Rank (before) [2]: 275

WPQDPQDLGWFYERLE
Rank (after) [3]: 416 | Rank (before) [4]: 899

WRDALNNISSIFGWVA
P8_MyD88 Rank (after) [6]: 764 | P8_MyD88 Rank (before) [7]: 1648

WRDVLKYIANLSGWDS
P8_MyD88 Rank (after) [1]: 243 | P8_MyD88 Rank (before) [2]: 435

WRTALTKVGNMLGWIS
Rank (after) [3]: 430 | Rank (before) [4]: 897

WRWMNCCRFCMRVNC
P8_MyD88 Rank (after) [6]: 729 | P8_MyD88 Rank (before) [7]: 1649

WSLDELLKILYAKETI
P8_MyD88 Rank (after) [10]: 508 | P8_MyD88 Rank (before) [11]: 1386

WSQPEFRAAMQAVLEL
P8_MyD88 Rank (after) [1]: 274 | P8_MyD88 Rank (before) [2]: 530

WTLNELQTILNILDIG
P8_MyD88 Rank (after) [12]: 656 | P8_MyD88 Rank (before) [13]: 1656

WVFASNLETFWARLYY
P8_MyD88 Rank (after) [12]: 599 | P8_MyD88 Rank (before) [13]: 1388

WVFQTLYSTLEDEYAF
P8_MyD88 Rank (after) [1]: 228 | P8_MyD88 Rank (before) [2]: 372

WVLHKVLQILHAREIY
Rank (after) [8]: 976 | Rank (before) [9]: 1390

WWIQALAEVANMAGED
Rank (after) [3]: 134 | Rank (before) [4]: 158 | Population [5]: 0.00925%

YAASMRWFGELAKIVG
P8_MyD88 Rank (after) [10]: 558 | P8_MyD88 Rank (before) [11]: 1710

YAASPRLFGEPVKIVG
P8_MyD88 Rank (after) [10]: 497 | P8_MyD88 Rank (before) [11]: 1755

YAASPRWLDDLVNIVG
P8_MyD88 Rank (after) [10]: 521 | P8_MyD88 Rank (before) [11]: 1754

YAASPWWFDDIQQIQLFWD
P8_MyD88 Rank (after) [10]: 543 | P8_MyD88 Rank (before) [11]: 1720

YAASPWWFDELLQIA
P8_MyD88 Rank (after) [12]: 633 | P8_MyD88 Rank (before) [13]: 1740

YAASPWWFDELVHILW
P8_MyD88 Rank (after) [6]: 678 | P8_MyD88 Rank (before) [7]: 1722

YAASPWWFDELVKILE
Rank (after) [8]: 906 | Rank (before) [9]: 1733

YAASPWWFDELVKTVR
Rank (after) [3]: 418 | Rank (before) [4]: 1762

YAASPWWFDELVRIVC
Rank (after) [3]: 407 | Rank (before) [4]: 1723

YAASPWWFDELVTILG
Rank (after) [3]: 433 | Rank (before) [4]: 1725

YAASPWWFYERVEILG
P8_MyD88 Rank (after) [12]: 612 | P8_MyD88 Rank (before) [13]: 1716

YAASPWWLVELVQIVG
P8_MyD88 Rank (after) [6]: 752 | P8_MyD88 Rank (before) [7]: 1758

YAASTWWHTVLARLMG
P8_MyD88 Rank (after) [10]: 540 | P8_MyD88 Rank (before) [11]: 1760

YAFTCHLHRYLVQRCV
P3_MyD88 Rank (after) [6]: 692 | P3_MyD88 Rank (before) [7]: 1481

YAFTCHLQRYLVQRGV
Rank (after) [14]: 118 | Rank (before) [15]: 1545

YAFTGHFQRYLVQRGV
Rank (after) [14]: 422 | Rank (before) [15]: 1485

YAFTGHLCRCLVLRGA
P3_MyD88 Rank (after) [10]: 506 | P3_MyD88 Rank (before) [11]: 1489

YAFTGHLHATL
Population (P3_MyD88 pool: P3 T-Surf phage library): 0.00291%

YAFTGHLHHALRLNKIETF
Rank (after) [14]: 95 | Rank (before) [15]: 278
